This note sets out measurements from patent US20240317718A1, “SUBSTITUTED HETEROCYCLIC COMPOUNDS” (BRISTOL-MYERS SQUIBB COMPANY, priority 2021, published 2024).

In general, IC50 refers to the concentration that gives 50% inhibition. What is called Papp A→B is the apparent permeability from the apical to the basolateral side of a cell layer. Read a low Papp A→B as slow passage. The term efflux ratio denotes the permeability from basolateral to apical divided by that in the opposite direction, in the common usage.

Data set [1] deals with Caco-2 cells. As to conditions: human, Caco-2, 2 h, 3 μM, pH 7.4.
The subject of data set [2] is IFNα-induced pSTAT5 (Tyk2-mediated signal transduction). The data set is described as follows: IFNα-induced STAT phosphorylation in human whole blood. It is filed as cell-based. The settings on record: 1 h incubation with compound, 1000 U/mL IFNα A/D for 15 min, CD3 positive population, read-out: Human Whole blood IFNa pSTAT5 IC50. As for the experimental part:
IFNα-Induced STAT Phosphorylation in Human Whole Blood
After an hour long incubation with compound, human whole blood (drawn with ACD-A as anticoagulant) was stimulated with 1000 U/mL recombinant human IFNα A/D (R&D Systems 11200-2) for 15 min. The stimulation was stopped by adding Fix/Lyse buffer (BD 558049). Cells were stained with a CD3 FITC antibody (BD 555916), washed, and permeabilized on ice using Perm III buffer (BD 558050). Cells were then stained with an Alexa-Fluor 647 pSTAT5 (pY694) antibody (BD 612599) for 60 min prior to analysis on the iQue Plus. The amount of pSTAT5 expression was quantitated by median fluorescence intensity after gating on the CD3 positive population.

Data set [3] in a line: in vitro. The settings on record: human, Caco-2, pH 7.4.

Take `[2H]C([2H])([2H])NC(=O)c1nnc(NC(=O)C2CC2)cc1Nc1cccc(-c2cc(C)ncn2)c1OC` [Example 8, 6-cyclopropaneamido-4-{[2-methoxy-3-(6-methylpyrimidin-4-yl)phenyl]amino}-N-(^2H3)methylpyridazine-3-carboxamide]: in data set [1], the “CACO2 (A-B)” value is reported as 460 nm/s. On the same count and under the same terms, with `[2H]C([2H])([2H])NC(=O)c1nnc(NC(=O)C2CC2)cc1Nc1cccc(-c2noc(COCC)n2)c1OC` [Example 3, 6-cyclopropaneamido-4-({3-[5-(ethoxymethyl)-1,2,4-oxadiazol-3-yl]-2-methoxyphenyl}amino)-N-(^2H3)methylpyridazine-3-carboxamide] the figure was 553 nm/s; with `[2H]C([2H])([2H])NC(=O)c1nnc(NC(=O)C2CC2)cc1Nc1cccc(-c2cnc(C3CC3)cn2)c1OC` [Example 11, 6-cyclopropaneamido-4-{[3-(5-cyclopropylpyrazin-2-yl)-2-methoxyphenyl]amino}-N-(^2H3)methylpyridazine-3-carboxamide], 270 nm/s; with `[2H]C([2H])([2H])NC(=O)c1nnc(NC(=O)C2CC2)cc1Nc1cccc(-c2cnc(F)cn2)c1OC` [Example 10, 6-cyclopropaneamido-4-{[3-(5-fluoropyrazin-2-yl)-2-methoxyphenyl]amino}-N-(^2H3)methylpyridazine-3-carboxamide], 513 nm/s. Still for that read-out and setting: with `[2H]C([2H])([2H])NC(=O)c1nnc(NC(=O)C2CC2)cc1Nc1cccc(-c2noc(CCOC)n2)c1OC` [Example 4, 6-cyclopropaneamido-4-({2-methoxy-3-[5-(2-methoxyethyl)-1,2,4-oxadiazol-3-yl]phenyl}amino)-N-(^2H3)methylpyridazine-3-carboxamide] the figure was 591 nm/s; with `[2H]C([2H])([2H])NC(=O)c1nnc(NC(=O)C2CC2)cc1Nc1cccc(-c2cnc([N+](=O)[O-])cn2)c1OC` [Example 12, 6-cyclopropaneamido-4-{[2-methoxy-3-(5-nitropyrazin-2-yl)phenyl]amino}-N-(^2H3)methylpyridazine-3-carboxamide], 16 nm/s. As for `[2H]C([2H])([2H])NC(=O)c1nnc(NC(=O)C2CC2)cc1Nc1cccc(-c2nc(C)ns2)c1OC` [Example 13, 6-cyclopropaneamido-4-{[2-methoxy-3-(3-methyl-1,2,4-thiadiazol-5-yl)phenyl]amino}-N-(^2H3)methylpyridazine-3-carboxamide], the “CACO2 (A-B)” value in data set [1] was 211 nm/s. `[2H]C([2H])([2H])NC(=O)c1nnc(NC(=O)C2CC2)cc1Nc1nccc(-c2cn(C)nc2C)c1OC` [Example 31, 6-cyclopropaneamido-4-{[4-(1,3-dimethyl-1H-pyrazol-4-yl)-3-methoxypyridin-2-yl]amino}-N-(^2H3)methylpyridazine-3-carboxamide]: the 50% inhibitory concentration (IC50) in data set [2] was 289 nM. In data set [3], the Papp A→B at 2 h, 3 μM is 39.3 ×10⁻⁶ cm/s and the efflux ratio at 2 h, 3 μM came to 1.

`[2H]C([2H])([2H])NC(=O)c1nnc(NC(=O)C2CC2)cc1Nc1cccc(-c2nc(C)oc2C)c1OC` [Example 18, 6-cyclopropaneamido-4-{[3-(2,5-dimethyl-1,3-oxazol-4-yl)-2-methoxyphenyl]amino}-N-(^2H3)methylpyridazine-3-carboxamide]: the IC50 in data set [2] is 152 nM. In data set [3], the apical-to-basolateral permeability (Papp A→B) at 2 h, 3 μM is 25.9 ×10⁻⁶ cm/s and the efflux ratio at 2 h, 3 μM amounted to 0.7. Regarding `[2H]C([2H])([2H])NC(=O)c1nnc(NC(=O)C2CC2)cc1Nc1cccc(-c2ccsn2)c1OC` [Example 35, 6-cyclopropaneamido-4-{[2-methoxy-3-(1,2-thiazol-3-yl)phenyl]amino}-N-(^2H3)methylpyridazine-3-carboxamide], the IC50 in data set [2] stood at 121 nM. Also, in data set [3], the Papp A→B at 2 h, 3 μM was found to be 42.2 ×10⁻⁶ cm/s and the efflux ratio at 2 h, 3 μM amounted to 0.5. On to `[2H]C([2H])([2H])NC(=O)c1nnc(NC(=O)C2CC2)cc1Nc1cccc(-c2ncns2)c1OC` [Example 9, 6-cyclopropaneamido-4-{[2-methoxy-3-(1,2,4-thiadiazol-5-yl)phenyl]amino}-N-(^2H3)methylpyridazine-3-carboxamide], for which the “CACO2 (A-B)” value in data set [1] is given as 499 nm/s.
